What was measured:
Type in all cases: cell-based
normal skin fibroblast = test: Enzyme activities in culture supernatants of normal cell + various reagents; conditions: for GALC enzyme activity in culture supernatant / total β-Hex enzyme activity in culture supernatant / α-Fuc enzyme activity in culture supernatant / α-Gal enzyme activity in culture supernatant / α-Gluc enzyme activity in culture supernatant / α-Iduro enzyme activity in culture supernatant / α-Man enzyme activity in culture supernatant / β-Gal enzyme activity in culture supernatant / β-Gluc enzyme activity in culture supernatant / β-Glucuro enzyme activity in culture supernatant / β-Hex A enzyme activity in culture supernatant: NH4Cl 20 mM, CQ 20 uM, Bafilo 20 nM; for excretion of group of lysosomal enzymes compared with no reagent added: Tables 1 and 2
Protocol: In a culture dish with a diameter of 10 cm, a normal skin fibroblast was cultured in a DMEM medium containing 10% FBS (fetal bovine serum) and a recommended amount of an antibiotic and/or an antibacterial agent [Gibco (registered trade name) Antibiotic-Antimycotic, Life Technologies] (hereinafter, referred to as “a standard culture medium”) until the cell became confluent. To the cultured normal skin fibroblast, ammonium chloride was added in such an amount that the concentration of ammonium chloride became 20 mM in the culture medium. Then, the cell was cultured. Seven days after, a culture supernatant was collected, and filtered with a 0.2 μm sterilizing filter to remove large debris and living cells. After the filtration, the activities of lysosomal enzymes contained in the supernatant were measured by a method as described later.
To confirm that the lysosomal enzyme group thus obtained contained lysosomal enzymes, the culture supernatant obtained after addition of ammonium chloride and culture was subjected to measurement of the activities of lysosomal enzymes. As controls, a culture supernatant of a normal skin fibroblast that was cultured without addition of ammonium chloride, and a culture supernatant of an ML-II patient-derived skin fibroblast (hereinafter, referred to as “an ML-II cell”) that was cultured without addition of ammonium chloride were used to measure the activities of lysosomal enzymes in the culture supernatant.
(§1) The activities of lysosomal enzymes were measured by a standard method using an artificial 4-methylumbelliferyl substrate. Briefly, a sample was incubated with the artificial substrate at 37° C. for 1 hour in an acidic phosphate or citrate buffer, and fluorescence was measured on a microplate reader at an excitation wavelength of 365 nm and an emission wavelength of 450 nm. For galactocerebrosidase, 6-hexadecanoylamino-4-methylumbelliferyl β-D-galactopyranoside (Slater and Frith Ltd.) was used as a substrate, and fluorescence was measured at an excitation wavelength of 385 nm and an emission wavelength of 450 nm. The enzyme activities were calculated as nmol/h/μL.
In a culture dish with a diameter of 10 cm, a normal skin fibroblast was cultured in a standard culture medium until the cell became confluent. […] Then, the cell was cultured. Five days after and 7 days after, a culture supernatant was collected, and filtered with a 0.2 μm sterilizing filter to remove large debris and living cells. After the filtration, the activities of lysosomal enzymes contained in the supernatant were measured by the same method as described in Example 1. As a control, a culture supernatant of a normal skin fibroblast that was cultured in a standard culture medium with no addition of any reagents was used to measure the activities of lysosomal enzymes in the culture supernatant.
In Tables 1 and 2, β-Gal means β-galactosidase, total β-Hex means total β-hexosaminidase, β-Hex A means β-hexosaminidase A, β-Gluc means β-glucosidase, α-Man means α-mannosidase, α-Fuc means α-fucosidase, α-Gluc means α-glucosidase, α-Gal means α-galactosidase, β-Glucuro means β-glucuronidase, α-L-Iduro means α-L-iduronidase, and GALC means galactocerebrosidase. SCM means a standard culture medium with no addition of any reagents. […] Bafilo means bafilomycin A1. The enzyme activity is expressed as nmol/h/μL.

COS-1 cell = test: Enzyme activities in culture supernatant of COS-1 cell + NH4Cl
Protocol: as §1
In a culture dish with a diameter of 10 cm, a COS-1 cell was cultured in a standard culture medium until the cell became confluent. To the cultured COS-1 cell, ammonium chloride was added in such an amount that the concentration became 20 mM in the culture medium. Then, the cell was cultured. Three days after, a culture supernatant was collected, and filtered with a 0.2 μm sterilizing filter to remove large debris and living cells. After the filtration, the activities of lysosomal enzymes contained in the supernatant were measured by the same method as described in Example 1. As a control, a culture supernatant of a COS-1 cell that was cultured in a standard culture medium with no addition of ammonium chloride was used to measure the activities of lysosomal enzymes in the culture supernatant.
In Table 3, β-Gal means β-galactosidase, total β-Hex means total β-hexosaminidase, β-Hex A means β-hexosaminidase A, β-Gluc means β-glucosidase, α-Man means α-mannosidase, α-Fuc means α-fucosidase, α-Gluc means α-glucosidase, α-Gal means α-galactosidase, β-Glucuro means β-glucuronidase, α-L-Iduro means α-L-iduronidase, and GALC means galactocerebrosidase. NH4Cl(−) means a culture supernatant in the case of no addition of ammonium chloride. NH4Cl(+) means a culture supernatant in the case of addition of ammonium chloride. The enzyme activity is expressed as nmol/h/μL.

[1] = target: T1, mannose 6-phosphate receptor (Homo sapiens, UniProt P11717); test: Competitive inhibition test for mannose 6-phosphate; conditions: ML-II cell, FIG. 4
T1 construct: a mannose 6-phosphate receptor on the cell surface; endogenous in cells; host or cells: ML-II cell
T1 sequence (P11717 41-2491): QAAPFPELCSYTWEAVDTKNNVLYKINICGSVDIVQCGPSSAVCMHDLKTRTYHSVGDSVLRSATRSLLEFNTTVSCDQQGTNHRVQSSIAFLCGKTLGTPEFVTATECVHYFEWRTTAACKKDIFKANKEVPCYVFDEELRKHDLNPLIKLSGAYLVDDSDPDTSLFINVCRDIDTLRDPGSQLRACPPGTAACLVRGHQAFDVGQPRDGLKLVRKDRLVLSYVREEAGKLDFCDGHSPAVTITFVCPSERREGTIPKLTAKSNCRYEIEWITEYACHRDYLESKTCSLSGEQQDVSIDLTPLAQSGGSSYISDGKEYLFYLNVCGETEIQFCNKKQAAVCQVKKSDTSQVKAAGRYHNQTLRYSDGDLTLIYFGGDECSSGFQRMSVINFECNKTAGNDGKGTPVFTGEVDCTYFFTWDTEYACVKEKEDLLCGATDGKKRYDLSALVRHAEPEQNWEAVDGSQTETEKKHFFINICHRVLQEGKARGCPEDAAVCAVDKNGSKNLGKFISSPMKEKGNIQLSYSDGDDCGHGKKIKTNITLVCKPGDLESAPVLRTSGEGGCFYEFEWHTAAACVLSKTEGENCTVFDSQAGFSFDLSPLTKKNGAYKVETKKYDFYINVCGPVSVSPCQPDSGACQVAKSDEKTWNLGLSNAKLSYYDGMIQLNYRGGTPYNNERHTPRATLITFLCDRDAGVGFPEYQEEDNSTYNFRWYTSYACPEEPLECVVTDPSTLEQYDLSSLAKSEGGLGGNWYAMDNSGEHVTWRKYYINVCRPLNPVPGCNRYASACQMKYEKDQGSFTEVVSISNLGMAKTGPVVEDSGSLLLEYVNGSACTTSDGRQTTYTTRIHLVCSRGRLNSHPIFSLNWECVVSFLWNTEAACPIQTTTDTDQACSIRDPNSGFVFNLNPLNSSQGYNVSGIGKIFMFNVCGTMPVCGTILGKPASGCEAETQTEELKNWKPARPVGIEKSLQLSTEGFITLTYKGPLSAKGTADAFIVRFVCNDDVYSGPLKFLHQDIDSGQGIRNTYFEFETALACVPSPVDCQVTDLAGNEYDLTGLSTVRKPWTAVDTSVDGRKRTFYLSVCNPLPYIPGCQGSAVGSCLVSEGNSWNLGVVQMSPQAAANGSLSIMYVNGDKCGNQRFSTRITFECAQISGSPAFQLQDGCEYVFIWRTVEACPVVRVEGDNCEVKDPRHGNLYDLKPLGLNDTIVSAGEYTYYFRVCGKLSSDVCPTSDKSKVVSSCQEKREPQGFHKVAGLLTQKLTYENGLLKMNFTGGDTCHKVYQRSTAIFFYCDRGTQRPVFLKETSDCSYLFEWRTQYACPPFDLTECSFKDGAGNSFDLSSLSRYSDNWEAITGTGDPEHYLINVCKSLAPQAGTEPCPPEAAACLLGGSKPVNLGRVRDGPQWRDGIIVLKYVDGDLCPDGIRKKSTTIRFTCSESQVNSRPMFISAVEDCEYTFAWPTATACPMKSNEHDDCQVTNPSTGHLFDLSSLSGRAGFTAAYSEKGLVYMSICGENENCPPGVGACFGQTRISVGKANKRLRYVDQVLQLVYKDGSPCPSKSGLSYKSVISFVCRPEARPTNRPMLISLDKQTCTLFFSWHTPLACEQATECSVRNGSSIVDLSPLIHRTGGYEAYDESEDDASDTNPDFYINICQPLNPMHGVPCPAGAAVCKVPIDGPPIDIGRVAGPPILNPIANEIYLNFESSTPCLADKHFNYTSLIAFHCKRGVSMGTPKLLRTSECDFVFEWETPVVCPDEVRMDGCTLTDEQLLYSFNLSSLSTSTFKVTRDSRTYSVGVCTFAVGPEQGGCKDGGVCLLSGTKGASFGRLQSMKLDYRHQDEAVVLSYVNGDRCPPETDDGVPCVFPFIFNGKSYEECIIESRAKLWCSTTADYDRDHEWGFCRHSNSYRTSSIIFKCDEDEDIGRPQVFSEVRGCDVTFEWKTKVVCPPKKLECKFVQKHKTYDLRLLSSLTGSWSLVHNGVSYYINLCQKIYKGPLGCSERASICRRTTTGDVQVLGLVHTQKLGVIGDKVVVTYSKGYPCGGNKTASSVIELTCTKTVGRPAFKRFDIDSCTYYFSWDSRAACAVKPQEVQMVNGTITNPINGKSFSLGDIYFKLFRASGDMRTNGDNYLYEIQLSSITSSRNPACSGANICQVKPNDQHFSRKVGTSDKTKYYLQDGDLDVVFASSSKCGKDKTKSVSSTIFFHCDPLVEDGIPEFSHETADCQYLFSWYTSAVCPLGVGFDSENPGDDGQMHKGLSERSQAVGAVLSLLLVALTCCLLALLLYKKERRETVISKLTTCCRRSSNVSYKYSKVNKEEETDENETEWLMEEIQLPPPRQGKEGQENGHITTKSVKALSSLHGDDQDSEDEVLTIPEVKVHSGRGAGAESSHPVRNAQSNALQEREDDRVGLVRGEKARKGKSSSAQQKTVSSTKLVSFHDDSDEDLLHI

Row | Structure (SMILES) | GALC enzyme activity in culture supernatant (normal skin fibroblast; Day 5, normal cell) | total β-Hex enzyme activity in culture supernatant (normal skin fibroblast; Day 5, normal cell) | α-Fuc enzyme activity in culture supernatant (normal skin fibroblast; Day 5, normal cell) | α-Gal enzyme activity in culture supernatant (normal skin fibroblast; Day 5, normal cell) | α-Gluc enzyme activity in culture supernatant (normal skin fibroblast; Day 5, normal cell) | α-Iduro enzyme activity in culture supernatant (normal skin fibroblast; Day 5, normal cell) | α-Man enzyme activity in culture supernatant (normal skin fibroblast; Day 5, normal cell) | β-Gal enzyme activity in culture supernatant (normal skin fibroblast; Day 5, normal cell) | β-Gluc enzyme activity in culture supernatant (normal skin fibroblast; Day 5, normal cell) | β-Glucuro enzyme activity in culture supernatant (normal skin fibroblast; Day 5, normal cell) | β-Hex A enzyme activity in culture supernatant (normal skin fibroblast; Day 5, normal cell) | GALC enzyme activity in culture supernatant (normal skin fibroblast; Day 7, normal cell) | total β-Hex enzyme activity in culture supernatant (normal skin fibroblast; Day 7, normal cell) | α-Fuc enzyme activity in culture supernatant (normal skin fibroblast; Day 7, normal cell) | α-Gal enzyme activity in culture supernatant (normal skin fibroblast; Day 7, normal cell) | α-Gluc enzyme activity in culture supernatant (normal skin fibroblast; Day 7, normal cell) | α-Iduro enzyme activity in culture supernatant (normal skin fibroblast; Day 7, normal cell) | α-Man enzyme activity in culture supernatant (normal skin fibroblast; Day 7, normal cell) | β-Gal enzyme activity in culture supernatant (normal skin fibroblast; Day 7, normal cell) | excretion of group of lysosomal enzymes compared with no reagent added (normal skin fibroblast; normal skin fibroblast) | further results
1 | CO/C1=C\C(C)=C\[C@@H](C)[C@@H](O)[C@@H](C)C/C(C)=C/C=C/[C@H](OC)[C@@H]([C@@H](C)[C@@H](O)[C@H](C)[C@@]2(O)C[C@@H](O)[C@H](C)[C@@H](C(C)C)O2)OC1=O [Bafilo, bafilomycin A1] | 0.64 nmol/h/µL | 437.7 nmol/h/µL | 3.49 nmol/h/µL | 0 nmol/h/µL | 1.13 nmol/h/µL | 0.57 nmol/h/µL | 100.4 nmol/h/µL | 4.65 nmol/h/µL | 3.97 nmol/h/µL | 4.07 nmol/h/µL | 18.9 nmol/h/µL | 0.69 nmol/h/µL | 300.5 nmol/h/µL | 3.97 nmol/h/µL | 0.91 nmol/h/µL | 2.44 nmol/h/µL | 0.64 nmol/h/µL | 123.9 nmol/h/µL | 2.93 nmol/h/µL | excreted in larger amounts | β-Gluc enzyme activity in culture supernatant (normal skin fibroblast; Day 7, normal cell): 8.65 nmol/h/µL; β-Glucuro enzyme activity in culture supernatant (normal skin fibroblast; Day 7, normal cell): 8.03 nmol/h/µL; β-Hex A enzyme activity in culture supernatant (normal skin fibroblast; Day 7, normal cell): 22.5 nmol/h/µL
2 | Cl.N [NH4Cl, ammonium chloride] | 0.55 nmol/h/µL | 736.1 nmol/h/µL | 6.68 nmol/h/µL | 0 nmol/h/µL | 1.92 nmol/h/µL | 3.61 nmol/h/µL | 137.1 nmol/h/µL | 8.20 nmol/h/µL | 4.53 nmol/h/µL | 3.85 nmol/h/µL | 67.0 nmol/h/µL | 0.50 nmol/h/µL | 1239.2 nmol/h/µL | 5.70 nmol/h/µL | 0.84 nmol/h/µL | 4.51 nmol/h/µL | 13.90 nmol/h/µL | 200.0 nmol/h/µL | 11.65 nmol/h/µL | excreted in larger amounts | β-Gluc enzyme activity in culture supernatant (normal skin fibroblast; Day 7, normal cell): 5.39 nmol/h/µL; β-Glucuro enzyme activity in culture supernatant (normal skin fibroblast; Day 7, normal cell): 12.78 nmol/h/µL; β-Hex A enzyme activity in culture supernatant (normal skin fibroblast; Day 7, normal cell): 157.9 nmol/h/µL; kinds of lysosomal enzymes contained in culture supernatant (normal skin fibroblast; normal skin fibroblast, ammonium chloride 20 mM, seven days, FIG. 1): at least 10 kinds; excretion of group of lysosomal enzymes compared with no addition of ammonium chloride (COS-1 cell; COS-1 cell, Table 3): excreted in larger amounts; GALC enzyme activity in culture supernatant (COS-1 cell; Day 3, COS1, NH4Cl 20 mM): 0.41 nmol/h/µL; total β-Hex enzyme activity in culture supernatant (COS-1 cell; Day 3, COS1, NH4Cl 20 mM): 799.8 nmol/h/µL; α-Fuc enzyme activity in culture supernatant (COS-1 cell; Day 3, COS1, NH4Cl 20 mM): 24.2 nmol/h/µL; α-Gal enzyme activity in culture supernatant (COS-1 cell; Day 3, COS1, NH4Cl 20 mM): 10.60 nmol/h/µL; α-Gluc enzyme activity in culture supernatant (COS-1 cell; Day 3, COS1, NH4Cl 20 mM): 7.96 nmol/h/µL; α-Iduro enzyme activity in culture supernatant (COS-1 cell; Day 3, COS1, NH4Cl 20 mM): 13.60 nmol/h/µL; α-Man enzyme activity in culture supernatant (COS-1 cell; Day 3, COS1, NH4Cl 20 mM): 178.0 nmol/h/µL; β-Gal enzyme activity in culture supernatant (COS-1 cell; Day 3, COS1, NH4Cl 20 mM): 25.26 nmol/h/µL; β-Gluc enzyme activity in culture supernatant (COS-1 cell; Day 3, COS1, NH4Cl 20 mM): 6.64 nmol/h/µL; β-Glucuro enzyme activity in culture supernatant (COS-1 cell; Day 3, COS1, NH4Cl 20 mM): 21.37 nmol/h/µL; β-Hex A enzyme activity in culture supernatant (COS-1 cell; Day 3, COS1, NH4Cl 20 mM): 85.9 nmol/h/µL
3 | CCN(CC)CCCC(C)Nc1ccnc2cc(Cl)ccc12 (centres unmarked) [CQ, chloroquine] |  |  |  |  |  |  |  |  |  |  |  |  |  |  |  |  |  |  |  | excreted in larger amounts | 
4 | O=C[C@@H](O)[C@@H](O)[C@H](O)[C@H](O)COP(=O)(O)O [mannose 6-phosphate] |  |  |  |  |  |  |  |  |  |  |  |  |  |  |  |  |  |  |  |  | β-glucosidase in mannose 6-phosphate competitive inhibition test [1]: not to be affected; intracellular uptake of lysosomal enzymes ([1]; mannose 6-phosphate 0, 5 or 10 mM with lysosomal enzyme group sample): concentration-dependently and competitively inhibited
